This note sets out measurements from patent US20100234226A1, “HERBICIDE COMBINATION COMPRISING DIMETHOXYTRIAZINYL-SUBSTITUTED DIFLUOROMETHANESULFONYLANILIDES” (BAYER CROPSCIENCE AG, priority 2008, published 2010).

Like-named read-outs stand apart in the source and are kept apart here.

What all share (type): in vivo
In test [1] the test system is Fallopia (ex Polygonum) convolvulus (POLCO). Put plainly: Post-emergence action against weeds, greenhouse pot test, Fallopia convolvulus. The procedure:
(§1) Seeds or rhizome pieces of mono- and dicotyledonous harmful and useful plants were placed in peat pots (diameter 4 cm) filled with sandy loam and then covered with soil. The pots were kept in a greenhouse under optimum conditions. In addition, harmful plants encountered in paddy rice cultivation were cultivated in pots with a water level 2 cm above the soil surface.
(§2) About three weeks after the start of the cultivation, the test plants were treated at the 2- to 3-leaf stage. The herbicides, formulated as powder or liquid concentrates, were, either alone or in the combinations according to the invention, sprayed in various dosages on to the green parts of the plants using an application rate of 600 l of water/ha (converted). For further cultivation of the plants, the pots were then again kept under optimum conditions in a greenhouse.
(§3) The visual scoring of the herbicidal effects was carried out in intervals up to 21 days after the treatment. Scoring was carried out in percent in comparison to the untreated control plants. 0%=no herbicidal activity, 100%=complete herbicidal activity=complete kill.
(§4) The percentages from the treatments with the herbicides alone (=individual application) and with the combinations according to the invention (=mixtures) were employed to calculate interactions using the method of Colby. When the observed efficacies of the mixtures exceed the formal sum of the values of the tests with individual applications, they also exceed the expected value according to Colby, which is calculated using the formula below (cf. S. R. Colby; in Weeds 15 (1967) pp. 20 to 22):
(§5) Here: • A, B=activity of components A and B in percent at a dosage of a and b g of ai/ha (=gramm of active substance per hectare), respectively. • E=expected value in % at a dosage of a+b g of ai/ha.
(§6) The combinations according to the invention of herbicides from group (A) with herbicides from group (B) were tested on a broad spectrum of important harmful plants (weed grasses, broad-leaved weeds/Cyperaceae) and useful plants: Triticum aestivum (TRZAS), Stellaria media (STEME), Lolium multiflorum (LOLMU), Veronica persica (VERPE), Alopecurus myosuroides (ALOMY), Matricaria inodora (MATIN), Brassica napus (BRSNW), Viola tricolor (VIOTR), Avena fatua (AVEFA), Amaranthus retroflexus (AMARE), Zea mays (ZEAMX), Pharbitis purpurea (PHBPU), Setaria viridis (SETVI), Fallopia (ex Polygonum) convolvulus (POLCO), Echinochloa crus-gaffi (ECHCG), Abuthilon theophrasti (ABUTH), Cyperus esculentus (CYPES), Oryza sativa (ORYSA).
(§7) Of particular interest are the results shown in the tables (Tab.) below, where the following key is used: • (1) EPPO code (former Bayer code) for the treated plant (see above) • (2) Time of scoring: DAT (days after treatment) • (3) Component A tested (identifying number) • (4) Component B tested (identifying number) • (5) Dosage component A [g of ai/ha] • (6) Dosage component B [g of ai/ha] • (7) % activity found • (8) E value (calculated according to Colby; see above) • (9) Comments: “SYNERGY”=synergistic interaction (E value <% activity found); “SAFENING”=safener action on useful plant (E value >% activity found)

Test [2] has as its system Cyperus esculentus (CYPES). Description: Post-emergence action against weeds, greenhouse pot test, Cyperus esculentus. As to the method: as §1, §2, §3, §4, §5
Test [3] relates to Viola tricolor (VIOTR). Description: Post-emergence action against weeds, greenhouse pot test, Viola tricolor. The note with it: for inhibition at 200 g/ha: 200 g of ai/ha. As to the method: as §1, §2, §3, §4, §5, §6, §7
Test [4] relates to Veronica persica (VERPE). Description: Post-emergence action against weeds, greenhouse pot test, Veronica persica. Conditions: read-out: % activity found; for inhibition at 4 g/ha: 4 g of ai/ha; for inhibition at 12 g/ha: 12 g of ai/ha. The procedure: as §1, §2, §3, §4, §5, §6, §7
Test [5] has as its system Lolium multiflorum (LOLMU). Description: Post-emergence action against weeds, greenhouse pot test, Lolium multiflorum. Conditions: read-out: % activity found; for inhibition at 200 g/ha: 200 g of ai/ha; for inhibition at 600 g/ha: 600 g of ai/ha. The procedure: as §1, §2, §3, §4, §5, §6, §7
The subject of test [6] is Amaranthus retroflexus (AMARE). Description: Post-emergence action against weeds, greenhouse pot test, Amaranthus retroflexus. Conditions: read-out: % activity found. As to the method: as §1, §2, §3, §4, §5, §6, §7
Test [7] relates to Zea mays (ZEAMX). Description: Post-emergence action against weeds, greenhouse pot test, Zea mays. The note with it: for inhibition at 200 g/ha: 200 g of ai/ha. As to the method: as §1, §2, §3, §4, §5, §6, §7
Test [8] has as its system Matricaria inodora (MATIN). Description: Post-emergence action against weeds, greenhouse pot test, Matricaria inodora. Conditions: for inhibition at 200 g/ha: 200 g of ai/ha; for inhibition at 600 g/ha: 600 g of ai/ha; for (7) % activity found: MATIN. As to the method: as §1, §2, §3, §4, §5
For test [9], the system named is Triticum aestivum (TRZAS). Description: Post-emergence action against weeds, greenhouse pot test, Triticum aestivum. The note with it: 240 h, read-out: % activity found. The procedure: as §1, §2, §3, §4
(§8) Here: • A, B=activity of components A and B in percent at a dosage of a and b g of ai/ha (=gramm of active substance per hectare), respectively. • E=expected value in % at a dosage of a+b g of ai/ha. […]

In test [10] the test system is Setaria viridis (SETVI). Put plainly: Post-emergence action against weeds, greenhouse pot test, Setaria viridis. The note with it: 504 h, read-out: % activity found. As to the method:
as §1, §2, §3, §4, §8

Setting [11] is: Tripleurospermum inodorum, post-emergence, 240 h, 10 DAT, read-out: % activity found.
The mark [12] stands for this setting: Tripleurospermum inodorum, post-emergence, 504 h, 21 DAT, read-out: % activity found.
Where [13] appears, read: Zea mays, post-emergence, 240 h, read-out: % activity found.
The mark [14] stands for this setting: Fallopia convolvulus, post-emergence, 504 h, read-out: % activity found.

As to `CCOC1Oc2ccc(OS(C)(=O)=O)cc2C1(C)C` (racemic) [B-49, (±)-2-ethoxy-2,3-dihydro-3,3-dimethyl-5-benzofuranyl methanesulfonate], the inhibition at 200 g/ha stood at 40% in [1] (Fallopia convolvulus, post-emergence, 504 h, 21 DAT, 200 g of ai/ha, read-out: % activity found); 0% in test [3] (Viola tricolor, post-emergence, 240 h, 10 DAT, read-out: % activity found); 0% in [3] (Viola tricolor, post-emergence, 504 h, 21 DAT, read-out: % activity found); 20% in [4] (504 h, 21 DAT, 200 g of ai/ha); 0% in test [5] (240 h, 10 DAT); 0% in test [5] (504 h, 21 DAT). Moreover, the inhibition at 200 g/ha was found to be 50% in test [6] (504 h, 21 DAT, 200 g of ai/ha); 30% in test [7] (Zea mays, post-emergence, 240 h, 10 DAT, read-out: % activity found); 0% in [7] (Zea mays, post-emergence, 504 h, 21 DAT, read-out: % activity found); 0% in [8] (setting [11]); 20% in test [8] (setting [12]). For the same compound, the inhibition at 600 g/ha amounted to 50% in test [1] (Fallopia convolvulus, post-emergence, 504 h, 21 DAT, 600 g of ai/ha, read-out: % activity found); 0% in test [2] (Cyperus esculentus, post-emergence, 504 h, 21 DAT, 600 g of ai/ha, read-out: % activity found); 0% in [3] (Viola tricolor, post-emergence, 504 h, 21 DAT, 600 g of ai/ha, read-out: % activity found); 10% in [5] (240 h, 10 DAT); 0% in [5] (504 h, 21 DAT); 40% in test [7] (Zea mays, post-emergence, 240 h, 10 DAT, 600 g of ai/ha, read-out: % activity found). The inhibition at 600 g/ha amounted to 0% in test [8] (setting [11]) and 30% in [8] (setting [12]).
With `CNC1=C(c2cccc(C(F)(F)F)c2)C(=O)C(c2ccccc2)O1` (racemic) [B-61, (±)-5-(methylamino)-2-phenyl-4-[3-(trifluoromethyl)phenyl]-3(2H)-furanone], the “(7) % activity found” value amounted to 20% in test [2] (CYPES, 21 DAT, B-61 alone, dose (6) 40); 70% in [3] (VIOTR, 21 DAT, B-61 alone, dose (6) 120); 50% in [7] (ZEAMX, 21 DAT, B-61 alone, dose (6) 120); 50% in [8] (21 DAT, B-61 alone, dose (6) 40); 50% in [8] (21 DAT, B-61 alone, dose (6) 120); 50% in test [8] (21 DAT, Table 65, B-61 alone, dose (6) 40). For the same compound, the inhibition at 40 g/ha in test [9] amounted to 30%; in test [5] (240 h) it was 50%; in test [5] (504 h), 40%; in test [7] (setting [13]), 40%. The inhibition at 120 g/ha in [7] (setting [13]) turned out to be 50%.
On to `COc1nc(OC)nc(C(=O)c2cccc(F)c2N(C)S(=O)(=O)C(F)F)n1` [A-1], for which, in test [1] (21 DAT, 12 g of ai/ha), the “% activity found” value came to 75%. The inhibition at 12 g/ha stood at 70% in test [2] (Cyperus esculentus, post-emergence, 240 h, 10 DAT, 12 g of ai/ha, read-out: % activity found); 60% in test [4] (240 h, 10 DAT); 40% in test [4] (504 h, 21 DAT). Besides, the inhibition at 4 g/ha in test [3] (Viola tricolor, post-emergence, 240 h, 10 DAT, 4 g of ai/ha, read-out: % activity found) is 20%; in test [4] (240 h, 10 DAT), 60%; in test [4] (504 h, 21 DAT), 30%; in test [6] (240 h, 10 DAT, 4 g of ai/ha), 70%; in test [8] (Tripleurospermum inodorum, post-emergence, 10/21 DAT, 4 g of ai/ha, read-out: % activity found), 50%. The “(7) % activity found” value in test [8] (21 DAT, A-1 alone, dose (5) 4) is on record as 50%; in [8] (21 DAT, Table 65, A-1 alone, dose (5) 12), 60%.
Take `CCS(=O)(=O)Oc1ccc2c(c1)C(C)(C)CO2` [B-9, 2,3-dihydro-3,3-dimethyl-5-benzofuranyl ethanesulfonate]: the inhibition at 100 g/ha is 0% in [1] (setting [14]); 0% in test [4] (504 h); 40% in test [10]; 10% in [7] (setting [13]); 50% in [8] (Tripleurospermum inodorum, post-emergence, 504 h, read-out: % activity found). Besides, the inhibition at 300 g/ha in test [1] (setting [14]) amounted to 30%; in test [5] (504 h), 0%; in test [7] (setting [13]), 20%; in test [7] (Zea mays, post-emergence, 504 h, read-out: % activity found), 0%.
